Our source for the EC50 values is patent US12655156B2, “Oxadiazolopyrazines and oxadiazolopyridines useful as mitochondrial uncouplers” (Virginia Tech Intellectual Properties, Inc., priority 2018, dated 2026).

pEC50: −log10 of the molar value.

One may read the pEC50 as −log10 of the EC50, conventionally taken in molar units.

The test system of this test is whole cells (NMuLi, C2C12, and L6 cells, isolated cardiomyocytes, human primary fibroblasts). The test can be described thus: Oxygen consumption rate (OCR) in whole cells, Seahorse XF-24 Flux Analyzer. In kind it is cell-based. As to conditions: increase in OCR; binned EC50 values. As for the experimental part: Biological activities of the compounds synthesized is determined by determining increase in oxygen consumption rate (OCR).
Oxygen consumption rate (OCR) in whole cells is measured in general accordance with the method of Kenwood B M et al. (Mol. Met. (2014) 3:114-123).
OCR is measured using a Seahorse XF-24 Flux Analyzer (Seahorse Biosciences, North Billerica, MA). NMuLi, C2C12, and L6 cells are seeded in a Seahorse 24-well tissue culture plate at a density of 3.5×10^4 cells/well, isolated cardiomyocytes at a density of 4×10^4 cells/well, and human primary fibroblasts at a density of 1.1×10^4 cells/well. The cells are then allowed to adhere for 24 h. Prior to the assay, the media is changed to unbuffered DMEM containing pyruvate and glutamine (Gibco #12800-017, pH=7.4 at 37° C.) and the cells are equilibrated for 30 mins at 37°° C. Compounds are injected during the assay and OCR is measured using 2 min measurement periods.
2-3 wells are used per condition and averaged over three plates (n=6-9). Statistical significance is determined by two-way ANOVA with Bonferroni's posttest.
Activities are reported as binned EC50 values: A=5 μM or less; B=>5 to 20 μM; C=over 20 μM; NA=not active.
`Oc1nc2nonc2nc1Nc1ccccc1F` [1-3, 6-((2-Fluorophenyl)amino)-[1,2,5]oxadiazolo[3,4-b]pyrazin-5-ol] showed a pEC50 of 4.70 to 5.30.

In the case of `Oc1nc2nonc2nc1Nc1cccc(F)c1` [1-4, 6-((3-Fluorophenyl)amino)-[1,2,5]oxadiazolo[3,4-b]pyrazin-5-ol], the pEC50 was below 4.70.

As for `Oc1nc2nonc2nc1Nc1ccc(F)cc1` [1-5, 6-((4-Fluorophenyl)amino)-[1,2,5]oxadiazolo[3,4-b]pyrazin-5-ol], the negative-log EC50 (pEC50) is below 4.70.

As to `Oc1nc2nonc2nc1Nc1ccccc1C(F)(F)F` [1-6, 6-((2-(Trifluoromethyl)phenyl)amino)-[1,2,5]oxadiazolo[3,4-b]pyrazin-5-ol], the pEC50 is 4.70 to 5.30.

`Oc1nc2nonc2nc1Nc1ccc(C(F)(F)F)cc1` [1-7, 6-((4-(Trifluoromethyl)phenyl)amino)-[1,2,5]oxadiazolo[3,4-b]pyrazin-5-ol] showed a pEC50 of 4.70 to 5.30.

Compound `Oc1nc2nonc2nc1Nc1ccccc1OC(F)(F)F` [1-8, 6-((2-(Trifluoromethoxy)phenyl)amino)-[1,2,5]oxadiazolo[3,4-b]pyrazin-5-ol] had a negative-log EC50 (pEC50) of at least 5.30.

As for `Oc1nc2nonc2nc1Nc1cccc(OC(F)(F)F)c1` [1-9, 6-((3-(Trifluoromethoxy)phenyl)amino)-[1,2,5]oxadiazolo[3,4-b]pyrazin-5-ol], the negative logarithm of the EC50 (pEC50) is at least 5.30.

Regarding `Oc1nc2nonc2nc1Nc1ccc(OC(F)(F)F)cc1` [1-10, 6-((4-(Trifluoromethoxy)phenyl)amino)-[1,2,5]oxadiazolo[3,4-b]pyrazin-5-ol], the pEC50 is 4.70 to 5.30.

`Oc1nc2nonc2nc1Nc1ccc(OC(F)(F)F)c(F)c1` [1-11, 6-((3-Fluoro-4-(trifluoromethoxy)phenyl)amino)-[1,2,5]oxadiazolo[3,4-b]pyrazin-5-ol] had a pEC50 of at least 5.30.

The compound `Cc1ccc(C(F)(F)F)cc1Nc1nc2nonc2nc1O` [1-12, 6-((2-Methyl-5-(trifluoromethyl)phenyl)amino)-[1,2,5]oxadiazolo[3,4-b]pyrazin-5-ol] had a pEC50 of 4.70 to 5.30.

In turn, `Oc1nc2nonc2nc1Nc1cccc(F)c1F` [1-14, 6-((2,3-Difluorophenyl)amino)-[1,2,5]oxadiazolo[3,4-b]pyrazin-5-ol] showed a negative logarithm of the EC50 (pEC50) of 4.70 to 5.30.

In the case of `Oc1nc2nonc2nc1Nc1cc(F)cc(F)c1` [1-15, 6-((3,5-Difluorophenyl)amino)-[1,2,5]oxadiazolo[3,4-b]pyrazin-5-ol], the negative-log EC50 (pEC50) is 4.70 to 5.30.

Take `Oc1nc2nonc2nc1Nc1ccc(C(F)(F)F)cc1F` [1-16, 6-((2-Fluoro-4-(trifluoromethyl)phenyl)amino)-[1,2,5]oxadiazolo[3,4-b]pyrazin-5-ol]: the negative logarithm of the EC50 (pEC50) is at least 5.30.

The compound `Oc1nc2nonc2nc1Nc1cc(C(F)(F)F)ccc1F` [1-17, 6-((2-Fluoro-5-(trifluoromethyl)phenyl)amino)-[1,2,5]oxadiazolo[3,4-b]pyrazin-5-ol] showed a pEC50 of 4.70 to 5.30.

Compound `Oc1nc2nonc2nc1Nc1cccc(I)c1` [1-18, 6-((3-Iodophenyl)amino)-[1,2,5]oxadiazolo[3,4-b]pyrazin-5-ol] gave a pEC50 of 4.70 to 5.30.

Compound `Oc1nc2nonc2nc1Nc1ccc(I)cc1` [1-19, 6-((4-Iodophenyl)amino)-[1,2,5]oxadiazolo[3,4-b]pyrazin-5-ol] had a pEC50 of 4.70 to 5.30.

Take `Oc1nc2nonc2nc1Nc1ccccc1Cl` [1-20, 6-((2-Chlorophenyl)amino)-[1,2,5]oxadiazolo[3,4-b]pyrazin-5-ol]: the negative logarithm of the EC50 (pEC50) is 4.70 to 5.30.

The compound `Oc1nc2nonc2nc1Nc1ccc(Cl)cc1` [1-21, 6-((4-Chlorophenyl)amino)-[1,2,5]oxadiazolo[3,4-b]pyrazin-5-ol] gave a pEC50 of 4.70 to 5.30.

Compound `COc1cc(OC(F)(F)F)ccc1Nc1nc2nonc2nc1O` [1-22, 6-((2-Methoxy-4-(trifluoromethoxy)phenyl)amino)-[1,2,5]oxadiazolo[3,4-b]pyrazin-5-ol] showed a negative-log EC50 (pEC50) of at least 5.30.

In the case of `Oc1nc2nonc2nc1Nc1ccc(OC(F)(F)F)c(Cl)c1` [1-24, 6-((3-Chloro-4-(trifluoromethoxy)phenyl)amino)-[1,2,5]oxadiazolo[3,4-b]pyrazin-5-ol], the negative logarithm of the EC50 (pEC50) is at least 5.30.

Compound `Oc1nc2nonc2nc1Nc1ccc(SC(F)(F)F)cc1` [1-25, 6-((4-((Trifluoromethyl)thio)phenyl)amino)-[1,2,5]oxadiazolo[3,4-b]pyrazin-5-ol] gave a pEC50 of at least 5.30.

Take `Oc1nc2nonc2nc1Nc1ccc(C(O)(C(F)(F)F)C(F)(F)F)cc1` [1-26, 6-((4-(1,1,1,3,3,3-Hexafluoro-2-hydroxypropan-2-yl)phenyl)amino)-[1,2,5]oxadiazolo[3,4-b]pyrazin-5-ol]: the pEC50 was below 4.70.

For `Oc1nc2nonc2nc1Nc1ccc(OC(F)F)cc1` [1-27, 6-((4-(Difluoromethoxy)phenyl)amino)-[1,2,5]oxadiazolo[3,4-b]pyrazin-5-ol], the pEC50 is below 4.70.

`Oc1nc2nonc2nc1Nc1ccc(OC(F)(F)C(F)F)cc1` [1-28, 6-((4-(1,1,2,2-Tetrafluoroethoxy)phenyl)amino)-[1,2,5]oxadiazolo[3,4-b]pyrazin-5-ol] had a pEC50 of 4.70 to 5.30.

For the compound `Oc1nc2nonc2nc1Nc1ccc(OC(F)(F)Cl)cc1` [1-29, 6-((4-(Chlorodifluoromethoxy)phenyl)amino)-[1,2,5]oxadiazolo[3,4-b]pyrazin-5-ol], the negative logarithm of the EC50 (pEC50) is at least 5.30.

`Oc1nc2nonc2nc1Nc1ccc(S(F)(F)(F)(F)F)cc1` [1-30, 6-((4-(Pentafluoro-16-sulfaneyl)phenyl)amino)-[1,2,5]oxadiazolo[3,4-b]pyrazin-5-ol] gave a negative-log EC50 (pEC50) of at least 5.30.

With `Oc1nc2nonc2nc1Nc1cccc(S(F)(F)(F)(F)F)c1` [1-31, 6-((3-(Pentafluoro-16-sulfaneyl)phenyl)amino)-[1,2,5]oxadiazolo[3,4-b]pyrazin-5-ol], the pEC50 is at least 5.30.

The compound `Cc1cc(OC(F)(F)F)ccc1Nc1nc2nonc2nc1O` [1-32, 6-((2-Methyl-4-(trifluoromethoxy)phenyl)amino)-[1,2,5]oxadiazolo[3,4-b]pyrazin-5-ol] had a pEC50 of at least 5.30.

`Oc1nc2nonc2nc1Nc1ccc(F)c(Br)c1` [1-33, 6-((3-Bromo-4-fluorophenyl)amino)-[1,2,5]oxadiazolo[3,4-b]pyrazin-5-ol] showed a pEC50 of 4.70 to 5.30.

For the compound `Oc1nc2nonc2nc1Nc1cc(C(F)(F)F)cc(C(F)(F)F)c1` [1-34, 6-((3,5-Bis(trifluoromethyl)phenyl)amino)-[1,2,5]oxadiazolo[3,4-b]pyrazin-5-ol], the negative-log EC50 (pEC50) is 4.70 to 5.30.

As to `Oc1nc2nonc2nc1Nc1ccc(I)cc1OC(F)(F)F` [1-35, 6-((4-Iodo-2-(trifluoromethoxy)phenyl)amino)-[1,2,5]oxadiazolo[3,4-b]pyrazin-5-ol], the pEC50 is at least 5.30.

Regarding `Oc1nc2nonc2nc1Nc1ccc(OC(F)(F)F)cc1F` [1-36, 6-((2-Fluoro-4-(trifluoromethoxy)phenyl)amino)-[1,2,5]oxadiazolo[3,4-b]pyrazin-5-ol], the pEC50 was at least 5.30.

Regarding `Oc1nc2nonc2nc1Nc1cccc(C(F)(F)F)c1F` [1-37, 6-((2-Fluoro-3-(trifluoromethyl)phenyl)amino)-[1,2,5]oxadiazolo[3,4-b]pyrazin-5-ol], the pEC50 is at least 5.30.

Turning to `Oc1nc2nonc2nc1Nc1ccc(OC(F)(F)F)cc1Br` [1-38, 6-((2-Bromo-4-(trifluoromethoxy)phenyl)amino)-[1,2,5]oxadiazolo[3,4-b]pyrazin-5-ol], the pEC50 is at least 5.30.

In the case of `Oc1nc2nonc2nc1Nc1ccc(OC(F)(F)F)c(Br)c1` [1-39, 6-((3-Bromo-4-(trifluoromethoxy)phenyl)amino)-[1,2,5]oxadiazolo[3,4-b]pyrazin-5-ol], the negative-log EC50 (pEC50) is at least 5.30.

In turn, `O=[N+]([O-])c1cc(Nc2nc3nonc3nc2O)ccc1OC(F)(F)F` [1-40, 6-((3-Nitro-4-(trifluoromethoxy)phenyl)amino)-[1,2,5]oxadiazolo[3,4-b]pyrazin-5-ol] gave a negative-log EC50 (pEC50) below 4.70.

Take `Oc1nc2nonc2nc1Nc1ccc(OC(F)(F)F)cc1Cl` [1-41, 6-((2-Chloro-4-(trifluoromethoxy)phenyl)amino)-[1,2,5]oxadiazolo[3,4-b]pyrazin-5-ol]: the negative-log EC50 (pEC50) is at least 5.30.

On to `Oc1nc2nonc2nc1Nc1ccc(C(F)(F)F)c(F)c1` [1-42, 6-((3-Fluoro-4-(trifluoromethyl)phenyl)amino)-[1,2,5]oxadiazolo[3,4-b]pyrazin-5-ol], for which the negative logarithm of the EC50 (pEC50) is 4.70 to 5.30.

`Oc1nc2nonc2nc1Nc1ccc(Br)cc1F` [1-43, 6-((4-Bromo-2-fluorophenyl)amino)-[1,2,5]oxadiazolo[3,4-b]pyrazin-5-ol]: the pEC50 was at least 5.30.

Turning to `Oc1nc2nonc2nc1Nc1ccc2ccccc2c1` [1-44, 6-(Naphthalen-2-ylamino)-[1,2,5]oxadiazolo[3,4-b]pyrazin-5-ol], the pEC50 is at least 5.30.

`CCc1cccc(Nc2nc3nonc3nc2O)c1` [1-46, 6-((3-Ethylphenyl)amino)-[1,2,5]oxadiazolo[3,4-b]pyrazin-5-ol] gave a pEC50 of 4.70 to 5.30.

Compound `CC(=O)c1ccc(Nc2nc3nonc3nc2O)cc1` [1-47, 1-(4-((6-Hydroxy-[1,2,5]oxadiazolo[3,4-b]pyrazin-5-yl)amino)phenyl)ethan-1-one] had a pEC50 below 4.70.

Consider `Oc1nc2nonc2nc1Nc1cccc2ccccc12` [1-50, 6-(Naphthalen-1-ylamino)-[1,2,5]oxadiazolo[3,4-b]pyrazin-5-ol], for which the pEC50 is 4.70 to 5.30.

Compound `CC(C)(C)c1ccc(Nc2nc3nonc3nc2O)cc1` [1-51, 6-((4-(tert-Butyl)phenyl)amino)-[1,2,5]oxadiazolo[3,4-b]pyrazin-5-ol] showed a negative logarithm of the EC50 (pEC50) of at least 5.30.
